From patent US9260408B2, “Dihydroquinoline-2-one derivatives” (Hoffmann-La Roche Inc., priority 2011, dated 2016) come the findings set out here.

For test [1], the target named is T1, human CYP11B2 (Homo sapiens, UniProt P19099).
T1 construct: expressed in transfected cells
T1 sequence (P19099 25-503): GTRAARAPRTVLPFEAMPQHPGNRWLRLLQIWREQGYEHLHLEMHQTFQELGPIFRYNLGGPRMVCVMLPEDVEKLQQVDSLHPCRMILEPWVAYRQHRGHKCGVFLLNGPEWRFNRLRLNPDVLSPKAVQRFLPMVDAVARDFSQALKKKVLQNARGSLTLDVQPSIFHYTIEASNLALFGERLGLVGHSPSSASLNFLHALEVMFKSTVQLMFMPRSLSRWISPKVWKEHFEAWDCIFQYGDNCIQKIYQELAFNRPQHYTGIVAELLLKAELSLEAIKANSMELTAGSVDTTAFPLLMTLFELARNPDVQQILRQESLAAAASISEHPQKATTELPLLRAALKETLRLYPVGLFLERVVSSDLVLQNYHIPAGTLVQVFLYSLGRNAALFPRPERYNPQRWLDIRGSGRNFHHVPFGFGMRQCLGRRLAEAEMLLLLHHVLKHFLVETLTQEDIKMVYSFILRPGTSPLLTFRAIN
In words: G-402 cellular enzyme assay, human CYP11B2 (aldosterone release, HTRF). Type of test: cell-based. The settings on record: G-402 cells expressing human CYP11B2; 1 μM Deoxycorticosterone. A digest of the protocol: (§1)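 G-402 cells stably expressing human CYP11B2 or CYP11B1, in DMEM/F12 with 2.5% charcoal-treated FCS, were incubated 16 h with compound plus 1 μM deoxycorticosterone (CYP11B2) or 1 μM deoxycortisol (CYP11B1). Aldosterone or cortisol in the supernatant measured by HTRF; EC50 from a 4-parameter MMF fit.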

For test [2], the target named is T2, human CYP11B1 (Homo sapiens, UniProt P15538).
T2 construct: expressed in transfected cells
T2 sequence (P15538 25-503): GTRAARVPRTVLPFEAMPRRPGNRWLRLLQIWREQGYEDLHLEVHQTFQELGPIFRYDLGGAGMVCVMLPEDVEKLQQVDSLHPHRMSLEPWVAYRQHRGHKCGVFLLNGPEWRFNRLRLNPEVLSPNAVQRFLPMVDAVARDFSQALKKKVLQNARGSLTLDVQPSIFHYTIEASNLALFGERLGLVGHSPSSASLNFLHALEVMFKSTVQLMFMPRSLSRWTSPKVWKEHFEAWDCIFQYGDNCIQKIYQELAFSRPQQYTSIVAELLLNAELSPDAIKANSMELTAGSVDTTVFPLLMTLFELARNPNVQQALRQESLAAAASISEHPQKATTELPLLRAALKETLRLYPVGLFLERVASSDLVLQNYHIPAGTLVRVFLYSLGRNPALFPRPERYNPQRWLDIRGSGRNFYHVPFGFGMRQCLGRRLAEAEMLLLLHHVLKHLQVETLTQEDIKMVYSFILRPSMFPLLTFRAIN
In words: G-402 cellular enzyme assay, human CYP11B1 (cortisol release, HTRF). Type of test: cell-based. The following applies: G-402 cells expressing human CYP11B1; 1 μM Deoxycortisol. A digest of the protocol:
as §1
In general terms: TR-FRET usually uses a lanthanide donor and a delayed reading to cut background.

Structures can show the parent of a compound that is named as a salt.

The term EC50 denotes the concentration needed to bring the measured effect to its halfway point. Read a high EC50 as a less potent agent. Consider `CN(Cc1cncc(-c2cc3c(cc2F)N(C)C(=O)CC3)c1)C(=O)c1ncccc1Cl` [Example 200, 3-Chloro-pyridine-2-carboxylic acid [5-(7-fluoro-1-methyl-2-oxo-1,2,3,4-tetrahydro-quinolin-6-yl)-pyridin-3-ylmethyl]-methyl-amide], for which the results for the EC50 in test [1] and in test [2] were 1 nM and 31 nM, respectively.
On the same counts, the results for `CN1C(=O)CCc2cc(-c3cncc(C4(N(C)C(=O)c5ncccc5Cl)CC4)c3)ccc21` [Example 201, 3-Chloro-pyridine-2-carboxylic acid methyl-{1-[5-(1-methyl-2-oxo-1,2,3,4-tetrahydro-quinolin-6-yl)-pyridin-3-yl]-cyclopropyl}-amide] are 24 nM and 436 nM.
Take `CCS(=O)(=O)NCc1cncc(-c2cc(Cl)c3c(c2)CCC(=O)N3)c1` [Example 203, Ethanesulfonic acid [5-(8-chloro-2-oxo-1,2,3,4-tetrahydro-quinolin-6-yl)-pyridin-3-ylmethyl]-amide]: the EC50 worked out at 83 nM in test [1] and 4960 nM in test [2].
On the same counts, the results for `O=C1CCc2cc(-c3cncc(CNC(=O)c4ncccc4Cl)c3)cc(Cl)c2N1` [Example 204, 3-Chloro-pyridine-2-carboxylic acid [5-(8-chloro-2-oxo-1,2,3,4-tetrahydro-quinolin-6-yl)-pyridin-3-ylmethyl]-amide] are 20 nM and 2240 nM.
The matching figures for `Cc1noc(C)c1C(=O)NCc1cncc(-c2cc(Cl)c3c(c2)CCC(=O)N3)c1` [Example 205, 3,5-Dimethyl-isoxazole-4-carboxylic acid [5-(8-chloro-2-oxo-1,2,3,4-tetrahydro-quinolin-6-yl)-pyridin-3-ylmethyl]-amide]: 97 nM and 4030 nM.
The matching figures for `CCC1(NCc2cncc(-c3ccc4c(c3)CCC(=O)N4C)c2)COC1` [Example 206, 6-{5-[(3-Ethyl-oxetan-3-ylamino)-methyl]-pyridin-3-yl}-1-methyl-3,4-dihydro-1H-quinolin-2-one]: 10 nM and 237 nM.
With `CCS(=O)(=O)NCc1cncc(-c2cc3c(cc2Cl)N(C)C(=O)CC3)c1` [Example 207, Ethanesulfonic acid [5-(7-chloro-1-methyl-2-oxo-1,2,3,4-tetrahydro-quinolin-6-yl)-pyridin-3-ylmethyl]-amide], the EC50 in test [1] is 44 nM; in test [2] it was 2540 nM.
For `CCS(=O)(=O)NCc1cncc(-c2cc(F)c3c(c2)CCC(=O)N3C)c1` [Example 208, Ethanesulfonic acid [5-(8-fluoro-1-methyl-2-oxo-1,2,3,4-tetrahydro-quinolin-6-yl)-pyridin-3-ylmethyl]-amide], the EC50 in test [1] stood at 59 nM; in test [2], 4200 nM.
The matching figures for `CCS(=O)(=O)NCc1cncc(-c2cc(Cl)c3c(c2)CCC(=O)N3C)c1` [Example 209, Ethanesulfonic acid [5-(8-chloro-1-methyl-2-oxo-1,2,3,4-tetrahydro-quinolin-6-yl)-pyridin-3-ylmethyl]-amide]: 162 nM and 7540 nM.
On the same counts, the results for `CCS(=O)(=O)NCc1cncc(-c2ccc3c(c2F)CCC(=O)N3C)c1` [Example 210, Ethanesulfonic acid [5-(5-fluoro-1-methyl-2-oxo-1,2,3,4-tetrahydro-quinolin-6-yl)-pyridin-3-ylmethyl]-amide] are 30 nM and 1340 nM.
The matching figures for `CCS(=O)(=O)N(C)Cc1cncc(-c2cc3c(cc2F)N(C)C(=O)CC3)c1` [Example 211, Ethanesulfonic acid [5-(7-fluoro-1-methyl-2-oxo-1,2,3,4-tetrahydro-quinolin-6-yl)-pyridin-3-ylmethyl]-methyl-amide]: 5 nM and 119 nM.
For the compound `CCC(=O)NCc1cncc(-c2cc3c(cc2F)N(C)C(=O)CC3)c1` [Example 212, N-[5-(7-Fluoro-1-methyl-2-oxo-1,2,3,4-tetrahydro-quinolin-6-yl)-pyridin-3-ylmethyl]-propionamide], the EC50 in test [1] is 51 nM; in test [2], 4830 nM.
On the same counts, the results for `CC(C)(C)OC(=O)N1CC[C@H](Oc2cncc(-c3ccc4c(c3)CCC(=O)N4)c2)C1` [Example 214, (S)-3-[5-(2-oxo-1,2,3,4-tetrahydro-quinolin-6-yl)-pyridin-3-yloxy]-pyrrolidine-1-carboxylic acid tert-butyl ester] are 30 nM and 104 nM.
On the same counts, the results for `CN(Cc1cncc(-c2cc(Cl)c3c(c2)CCC(=O)N3)c1)C(=O)c1ncccc1Cl` [Example 216, 3-Chloro-pyridine-2-carboxylic acid [5-(8-chloro-2-oxo-1,2,3,4-tetrahydro-quinolin-6-yl)-pyridin-3-ylmethyl]-methyl-amide] are 42 nM and 879 nM.
On the same counts, the results for `CN1C(=O)CCc2cc(-c3cncc(CN[S@+]([O-])C(C)(C)C)c3Cl)ccc21` [Example 217, (R)-2-Methyl-propane-2-sulfinic acid [4-chloro-5-(1-methyl-2-oxo-1,2,3,4-tetrahydro-quinolin-6-yl)-pyridin-3-ylmethyl]-amide] are 29 nM and 1260 nM.
In the case of `CN1C(=O)CCc2cc(-c3cncc(CN)c3Cl)ccc21` [Example 218, 6-(5-Aminomethyl-4-chloro-pyridin-3-yl)-1-methyl-3,4-dihydro-1H-quinolin-2-one hydrochloride], the EC50 in test [1] worked out at 29 nM; in test [2], 1200 nM.
`Cc1noc(C)c1C(=O)NCc1cncc(-c2ccc3c(c2)CCC(=O)N3C)c1Cl` [Example 219, 3,5-Dimethyl-isoxazole-4-carboxylic acid [4-chloro-5-(1-methyl-2-oxo-1,2,3,4-tetrahydro-quinolin-6-yl)-pyridin-3-ylmethyl]-amide]: the EC50 in test [1] came out at 12 nM; in test [2] it was 557 nM.
For the compound `CN1C(=O)CCc2cc(-c3cncc(CNC(=O)c4ncccc4Cl)c3Cl)ccc21` [Example 220, 3-Chloro-pyridine-2-carboxylic acid [4-chloro-5-(1-methyl-2-oxo-1,2,3,4-tetrahydro-quinolin-6-yl)-pyridin-3-ylmethyl]-amide], the EC50 came out at 2 nM in test [1] and 40 nM in test [2].
On the same counts, the results for `Cc1c(CN)cncc1-c1ccc2c(c1)CCC(=O)N2C` [Example 222, 6-(5-Aminomethyl-4-methyl-pyridin-3-yl)-1-methyl-3,4-dihydro-1H-quinolin-2-one hydrochloride] are 4 nM and 1010 nM.
On the same counts, the results for `Cc1noc(C)c1C(=O)NCc1cncc(-c2ccc3c(c2)CCC(=O)N3C)c1C` [Example 223, 3,5-Dimethyl-isoxazole-4-carboxylic acid [4-methyl-5-(1-methyl-2-oxo-1,2,3,4-tetrahydro-quinolin-6-yl)-pyridin-3-ylmethyl]-amide] are 36 nM and 2860 nM.
With `Cc1c(CNC(=O)c2ncccc2Cl)cncc1-c1ccc2c(c1)CCC(=O)N2C` [Example 224, 3-Chloro-pyridine-2-carboxylic acid [4-methyl-5-(1-methyl-2-oxo-1,2,3,4-tetrahydro-quinolin-6-yl)-pyridin-3-ylmethyl]-amide], the values for the EC50 in test [1] and in test [2] were 6 nM and 173 nM, respectively.
For `Cc1c(CN[S@+]([O-])C(C)(C)C)cncc1-c1cc2c(cc1F)N(C)C(=O)CC2` [Example 225, (R)-2-Methyl-propane-2-sulfinic acid [5-(7-fluoro-1-methyl-2-oxo-1,2,3,4-tetrahydro-quinolin-6-yl)-4-methyl-pyridin-3-ylmethyl]-amide], the EC50 in test [1] came to 6 nM; in test [2], 691 nM.
In the case of `Cc1c(CN)cncc1-c1cc2c(cc1F)N(C)C(=O)CC2` [Example 226, 6-(5-Aminomethyl-4-methyl-pyridin-3-yl)-7-fluoro-1-methyl-3,4-dihydro-1H-quinolin-2-one hydrochloride], the EC50 in test [1] amounted to 11 nM; in test [2], 1770 nM.
Regarding `Cc1c(CNC(=O)c2ncccc2Cl)cncc1-c1cc2c(cc1F)N(C)C(=O)CC2` [Example 227, 3-Chloro-pyridine-2-carboxylic acid [5-(7-fluoro-1-methyl-2-oxo-1,2,3,4-tetrahydro-quinolin-6-yl)-4-methyl-pyridin-3-ylmethyl]-amide], the EC50 in test [1] stood at 4 nM; in test [2], 157 nM.
